Results from EP0547508A1, “Use of xanthine derivatives for the stabilisation of the auto-regulation of cerebral blood flow” (priority 1991, dated 1993).

System: Ratten
Experiment: Cerebral autoregulation in rats under adrenaline-induced acute hypertension, with or without carotid occlusion (ischaemia/reperfusion)
Format: in vivo
Text: Es werden 36 Ratten unterteilt in drei Gruppen operiert. Die erste Gruppe dient als Kontrolle, d.h. es wird eine akute Hypertonie erzeugt, ohne daß die Carotiden abgeklemmt werden. Die zweite Gruppe wird während der Ischämie und die dritte Gruppe während der Reperfusion mit Adrenalin stimuliert. In jeder Gruppe werden jeweils 6 Tiere mit der Verbindung 1 als Dauerinfusion behandelt.
Bei einem mittleren arteriellen Druck von 170 mmHg wird in der Kontrollgruppe die cerebrale Autoregulation durchbrochen (entsprechend 3 µg/kg Adrenalin (Firma Sigma)). Die dreifache Dosis führt bei einem Blutdruck von 200 mmHg zum Tod der Tiere. Im Gegensatz dazu ist in der mit Verbindung 1 behandelten Gruppe die dreifache Konzentration und ein mittlerer Druck von 180 mmHg erforderlich um an die Grenze der Autoregulation zu kommen. Der Verschluß beider Carotiden führt bei den Tieren, die mit Verbindung 1 behandelt wurden, zu einer höheren Restdurchblutung (25 %) als bei den Kontrolltieren. Während der Reperfusion bleibt die Gehirndurchblutung in der Kontrollgruppe auf dem niedrigen Niveau von 23 %. Die Autoregulation wird bereits bei 150 mmHg durchbrochen (entsprechend 3 µg/kg/Adrenalin). […] Erst bei 180 mmHg kommt es zum Durchbruch der Autoregulation.
Alle Kontrolltiere verstarben nach einer Dosis von 10 µg/kg Adrenalin. Die letale Dosis für mit Verbindung 1 behandelte Tiere liegt bei 30 µg/kg Adrenalin. Zusammenfassend läßt sich feststellen, daß die mit Verbindung 1 behandelten Tiere - im Vergleich mit den Kontrolltieren - höhere Blutdruckspitzen und Blutdruckabsenkungen tolerieren und deren Gehirndurchblutungsautoregulation erst bei der 3-fachen Adrenalinkonzentration durchbrochen wird.

Structure (SMILES): CCCn1cnc2c1c(=O)n(CCCCC(C)=O)c(=O)n2C [Verbindung 1, 1-(5-Oxohexyl)-3-methyl-7-n-propyl-xanthin]
- mittlerer Druck erforderlich um an die Grenze der Autoregulation zu kommen (acute hypertension by Adrenalin, carotids not clamped, Verbindung 1 as continuous infusion, control group 170 mmHg): 180 mmHg
- Adrenalin-Konzentration erforderlich um an die Grenze der Autoregulation zu kommen (acute hypertension, carotids not clamped, relative to control group (3 µg/kg Adrenalin)): dreifache
- Durchbruch der Autoregulation (during reperfusion, Adrenalin stimulation, control group 150 mmHg): 180 mmHg
- Restdurchblutung (occlusion of both carotids (ischaemia), higher than in control animals): 25%
- Gehirndurchblutung während der Reperfusion (reperfusion after carotid occlusion, control group stays at 23 %): erreichen sofort wieder das präischämische Ausgangsniveau
- Adrenalinkonzentration bei der die Gehirndurchblutungsautoregulation durchbrochen wird (summary, fold compared with control animals): 3
